A word on the pIC50: it is the negative decadic logarithm of the IC50, by convention in mol/L. Low values mean a large IC50, high ones a small IC50.

pIC50: −log10 of the molar value. Where two headings read alike, the source gives them in different places.

Type in all cases: binding
One assay addresses T1, hSERT transporter (Homo sapiens, UniProt P31645).
T1 construct: expressed in transfected cells; membranes prepared
Put plainly: Human serotonin transporter (hSERT) scintillation proximity assay, competition with [3H]-Citalopram. As to conditions: for IC50: Table 1, read-out: pIC50 SERT (converted). An excerpt: Screening for Human Serotonin Transporter (hSERT) Antagonists Using a Scintillation Proximity Assay (SPA)
The screening assay of this example was used to determine the affinity of ligands at the hSERT transporter by competition with [^3H]-Citalopram.
Scintillation Proximity Assay (SPA) works by bringing radioligand within close proximity to the bead's scintillant to stimulate light emission. In this assay, the receptor-containing membranes were pre-coupled to the SPA beads and the binding of the appropriate radioligand to the transporter was measured. The light emission was proportional to the amount of bound radioligand. Unbound radioligand produced no signal as a result of distant proximity to scintillant (lack of energy transfer).
Cells are released from culture flasks using PBS for 1-2 minutes. The cells were subsequently centrifuged at 1000 g's for 5 minutes and resuspended in PBS prior to being used in the membrane preparation.
(§1) Cell membranes were prepared using a membrane preparation buffer of 50 mM TRIS (pH 7.4). Cell membranes were prepared from a single cube (7.5×10^9 cells total). Cells were homogenized using a Polytron (setting medium for a 4 second burst). The homogenate was then centrifuged at 48,000×g for 15 minutes, the supernatant subsequently removed and discarded, and the pellet resuspended with fresh buffer. After a second centrifugation, the pellet was re-homogenized and brought to a final volume determined during the assay. Typically, membrane portions were aliquoted in 3 mg/ml (w:v). and stored at −80° C.
Compounds of the invention were diluted from 10 mM to 0.1 nM FAC (10 point curves, whole log/half log dilutions) via a Beckman Biomek 2000 using a serial dilution protocol. The test compounds were then transferred (20 μl/well) and the [^3H]-Citalopram radioligand was added at 50 μl/well. Membrane and beads were prepared to a ratio of 10 μg: 0.7 mg, with 0.7 mg PVT-WGA Amersham beads (Cat# RPQ0282V) added per well. 130 μl of the membrane: bead mixture was added to the assay plate.
The % inhibition was calculated for each compound tested [(Compound counts per minute (CPM) at maximum concentration-Non-Specific CPM)/Total CPM*100].
(§2) where max=total binding, min=non specific binding, x=concentration (M) of the tested compound and n=Hill slope. The inhibition dissociation constant (Ki) of each compound was determined according to the method of Cheng-Prusoff and then converted into negative logarithm (pKi) of the Ki.

In another assay the target is T2, hNET transporter (Homo sapiens, UniProt P23975).
T2 construct: expressed in transfected cells; membranes prepared
T2 sequence (P23975 whole entry): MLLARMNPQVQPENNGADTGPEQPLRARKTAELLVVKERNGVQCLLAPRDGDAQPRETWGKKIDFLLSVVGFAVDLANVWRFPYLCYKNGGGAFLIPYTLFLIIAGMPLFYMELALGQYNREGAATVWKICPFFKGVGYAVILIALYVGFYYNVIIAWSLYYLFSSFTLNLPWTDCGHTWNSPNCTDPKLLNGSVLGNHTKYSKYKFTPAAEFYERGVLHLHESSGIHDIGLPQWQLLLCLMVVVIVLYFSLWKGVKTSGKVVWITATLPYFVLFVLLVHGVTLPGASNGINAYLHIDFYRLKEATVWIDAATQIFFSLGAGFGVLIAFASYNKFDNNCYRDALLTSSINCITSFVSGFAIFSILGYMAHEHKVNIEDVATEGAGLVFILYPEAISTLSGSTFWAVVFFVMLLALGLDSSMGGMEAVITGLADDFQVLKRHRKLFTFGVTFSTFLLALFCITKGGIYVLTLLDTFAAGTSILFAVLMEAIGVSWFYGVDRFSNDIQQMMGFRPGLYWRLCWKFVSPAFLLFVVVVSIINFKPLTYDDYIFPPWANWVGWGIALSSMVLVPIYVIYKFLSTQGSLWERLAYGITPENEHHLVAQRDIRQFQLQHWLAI
Put plainly: Human norepinephrine transporter (hNET) scintillation proximity assay, competition with [3H]-Nisoxetine. As to conditions: for IC50: Table 1, read-out: pIC50 NET (converted). As for the experimental part:
This assay was used to determine the affinity of ligands for the hNET transporter by competition with [^3H]-Nisoxetine. As in the hSERT assay of the above example, receptor-containing membranes were pre-coupled to the SPA beads and the binding of the appropriate radioligand to the transporter was measured. The light emission was proportional to the amount of bound radioligand, with unbound radioligand producing no signal.
HEK-293 cells (Tatsumi et al., Eur. J. Pharmacol. 1997, 30, 249-258) stably expressing recombinant hNET (Clone: HEK-hNET #2) were maintained with media (DMEM hi glucose with 10% FBS, 300 μg/ml G418 and 2 mM L-Glutamine) and incubated at 37° C. with 5% CO2. Cells were released from culture flasks using PBS for 1-2 minutes. The cells were subsequently centrifuged at 1000 g's for 5 minutes and resuspended in PBS prior to being used in the membrane preparation.
as §1, with “(7.5×10^9cells” for “(7.5×10^9 cells”, “3-6 mg/mil” for “3 mg/ml”
^3[H] […] Compounds of the invention were diluted from 10 mM to 0.1 nM FAC (10 point curves, whole log /half log dilutions) via a Beckman Biomek 2000 using a serial dilution protocol. The test compounds were then transferred (20 μl/well) and the radioligand was added at 50 μl/well. Membrane and beads were prepared to a ratio of 10 μg: 0.7 mg, with 0.7 mg PVT-WGA Amersham beads (Cat# RPQ0282V) added per well. 130 μl of the membrane: bead mixture was added to the assay plate. The mixtures were allowed to stand at room temperature for one hour, and were then counted on a Packard TopCount LCS, a generic SPA counting protocol settings (Energy Range: Low, Efficiency Mode: Normal, Region A: 1.50-35.00, Region B: 1.50-256.00, Count Time (min.): 0.40, Background Subtract: none, Half-Life Correction: no, Quench Indicator: tSIS, Platemap blank subtraction: No, Cross talk reduction: Off).
The % inhibition was calculated for each compound tested [(Compound CPM at maximum concentration-Non-Specific CPM)/Total CPM*100]. The concentration producing 50% inhibition (IC50) was determined using an iterative non-linear curve fitting technique with Activity Base/Xlfit using the following equation:
as §2
(In general: In a scintillation proximity assay essentially only radioactivity close to the scintillant gives light.)

Another assay addresses T3, hDAT (Homo sapiens, UniProt Q01959).
T3 construct: expressed in transfected cells; plated whole cells
Put plainly: Human dopamine transporter scintillation proximity assay, competition with [3H]-Vanoxerine. The conditions noted are these: for IC50: Table 1, read-out: pIC50 DAT (converted). As for the experimental part: This assay was used to determine the affinity of ligands for the dopamine transporter by competition with [^3H]-Vanoxerine.
Cells were plated four hours prior to experiment by placing approximately 30,000 cells per well (in PBS) on white, opaque Cell-Tak coated 96 well plates. Extra buffer was apriated from the cell plates using an ELx405 plate washer.
Compounds of the invention were diluted from 10 mM to 0.1 nM FAC (10 point curves, whole log/half log dilutions) via a Beckman Biomek 2000 using a 10-point dilution protocol. The mixtures were allowed to stand at room temperature for 30 minutes, and were then counted on a Packard TopCount LCS, a generic SPA counting protocol settings, Count Time (min.): 0.40, Background Subtract: none, Half-Life Correction: none, Quench Indicator: tSIS, Platemap blank subtraction: none, Cross talk reduction: Off).
The % inhibition was calculated for each compound tested [(Compound CPM at maximum concentration-Non-Specific CPM)/Total CPM*100].
as §2

T1 sequence (P31645 whole entry): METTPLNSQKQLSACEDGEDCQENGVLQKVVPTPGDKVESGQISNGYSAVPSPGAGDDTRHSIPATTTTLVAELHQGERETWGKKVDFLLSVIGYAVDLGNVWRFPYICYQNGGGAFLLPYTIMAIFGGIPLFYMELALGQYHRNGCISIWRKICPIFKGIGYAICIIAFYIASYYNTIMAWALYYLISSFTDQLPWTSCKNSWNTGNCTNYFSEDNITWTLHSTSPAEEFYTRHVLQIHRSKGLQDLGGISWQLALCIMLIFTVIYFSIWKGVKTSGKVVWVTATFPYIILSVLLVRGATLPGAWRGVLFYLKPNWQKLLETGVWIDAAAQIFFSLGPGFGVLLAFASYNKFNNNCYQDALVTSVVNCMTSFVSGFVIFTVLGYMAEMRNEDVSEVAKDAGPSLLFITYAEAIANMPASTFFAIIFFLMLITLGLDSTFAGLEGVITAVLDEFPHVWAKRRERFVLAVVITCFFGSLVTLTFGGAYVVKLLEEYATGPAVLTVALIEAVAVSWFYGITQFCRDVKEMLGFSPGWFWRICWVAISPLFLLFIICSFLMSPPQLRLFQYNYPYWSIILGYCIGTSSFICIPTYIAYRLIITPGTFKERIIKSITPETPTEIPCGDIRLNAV
T3 sequence (Q01959 whole entry): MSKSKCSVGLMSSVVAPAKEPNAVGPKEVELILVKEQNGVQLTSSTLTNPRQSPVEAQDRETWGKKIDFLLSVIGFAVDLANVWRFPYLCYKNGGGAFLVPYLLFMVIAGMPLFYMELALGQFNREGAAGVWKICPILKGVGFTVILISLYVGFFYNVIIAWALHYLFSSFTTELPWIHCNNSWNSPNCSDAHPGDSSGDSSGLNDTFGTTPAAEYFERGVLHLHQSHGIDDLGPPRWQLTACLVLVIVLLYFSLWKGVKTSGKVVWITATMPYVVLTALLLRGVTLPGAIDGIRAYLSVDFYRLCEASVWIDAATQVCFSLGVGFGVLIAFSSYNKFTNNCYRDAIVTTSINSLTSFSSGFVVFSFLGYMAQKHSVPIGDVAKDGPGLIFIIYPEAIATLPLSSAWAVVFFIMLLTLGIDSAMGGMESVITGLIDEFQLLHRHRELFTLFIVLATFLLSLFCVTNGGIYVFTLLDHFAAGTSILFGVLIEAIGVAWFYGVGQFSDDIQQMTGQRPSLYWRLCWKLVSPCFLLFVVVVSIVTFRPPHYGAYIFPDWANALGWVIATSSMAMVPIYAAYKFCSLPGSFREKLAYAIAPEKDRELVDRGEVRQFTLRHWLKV

Turning to `CC(C)(C)CCC1(C(=O)c2cc(Cl)c(N)c(C(F)(F)F)c2)CCNC1` (stereo not drawn) [Compound 7, (4-Amino-3-chloro-5-trifluoromethyl-phenyl)-[3-(3,3-dimethyl-butyl)-pyrrolidin-3-yl]-methanone], the figures for the negative-log IC50 (pIC50) on hSERT transporter and at hNET transporter were 7.42 and 7.80, respectively. Further, the IC50 on hDAT is 955 nM.
As for `CC(C)(C)CCC1(C(=O)c2ccc(Cl)c(Oc3ccc(F)cc3)c2)CCNC1` (stereo not drawn) [Compound 8, [4-Chloro-3-(4-fluoro-phenoxy)-phenyl]-[3-(3,3-dimethyl-butyl)-pyrrolidin-3-yl]-methanone], the IC50 is 120 nM on hSERT transporter, 77.6 nM at hNET transporter and 1410 nM on hDAT.
In turn, `CCCC1(C(=O)c2ccc(Cl)c(OCCC(C)(C)C)c2)CCNC1` (stereo not drawn) [Compound 11, [4-Chloro-3-(3,3-dimethyl-butoxy)-phenyl]-(3-propyl-pyrrolidin-3-yl)-methanone] gave a pIC50 on hSERT transporter of 7.28. Besides, the IC50 on hNET transporter was 631 nM; at hDAT it was 1480 nM.
As to `CC(C)CCC1(C(=O)c2ccc(Cl)c(Oc3ccccc3)c2)CCNC1` (stereo not drawn) [Compound 12], the pIC50 on hSERT transporter is 7.36; at hNET transporter, 7.92. On hDAT, the IC50 is 1480 nM.
With `CCCC1(C(=O)c2ccc(Cl)c(Sc3ccccc3)c2)CCNC1` (stereo not drawn) [Compound 15, (4-Chloro-3-phenylsulfanyl-phenyl)-(3-propyl-pyrrolidin-3-yl)-methanone], the pIC50 at hSERT transporter was 7.46; at hNET transporter, 7.06. The IC50 at hDAT was 110 nM.
In the case of `CCCC1(C(=O)c2ccc(Cl)c(S(=O)(=O)c3ccccc3)c2)CCNC1` (stereo not drawn) [Compound 16, (3-Benzenesulfonyl-4-chloro-phenyl)-(3-propyl-pyrrolidin-3-yl)-methanone], the IC50 is 191 nM on hSERT transporter, 4900 nM on hNET transporter and 661 nM at hDAT.
`CCCC1(C(=O)c2ccc(Cl)c(Oc3ccccc3F)c2)CCNC1` (stereo not drawn) [Compound 17, [4-Chloro-3-(2-fluoro-phenoxy)-phenyl]-(3-propyl-pyrrolidin-3-yl)-methanone]: the pIC50 was 7.32 on hSERT transporter and 7.80 on hDAT. Also, the IC50 on hNET transporter was 24 nM.
For `CCCC1(C(=O)c2ccc(Cl)c(Oc3ccc(F)cc3)c2)CCNC1` (stereo not drawn) [Compound 18, [4-Chloro-3-(4-fluoro-phenoxy)-phenyl]-(3-propyl-pyrrolidin-3-yl)-methanone], the figures for the pIC50 on hSERT transporter and on hDAT were 7.62 and 7.78, respectively. Further, the IC50 on hNET transporter is 15.1 nM.
`CCC1(C(=O)c2ccc(Cl)c(Oc3ccccc3)c2)CCNC1` (stereo not drawn) [Compound 19, (4-Chloro-3-phenoxy-phenyl)-(3-ethyl-pyrrolidin-3-yl)-methanone]: the pIC50 on hSERT transporter is 7.24; at hDAT, 8.12. Also, on hNET transporter, the IC50 is 26.3 nM.
Regarding `CC(C)CC[C@@]1(C(=O)c2cc(F)c(N)c(Cl)c2)CCNC1` [Compound 21, (4-Amino-3-chloro-5-fluoro-phenyl)-[(R)-3-(3-methyl-butyl)-pyrrolidin-3-yl]-methanone], the pIC50 on hSERT transporter is 8.48; at hDAT it was 8.82. In addition, on hNET transporter, the IC50 is 1.91 nM.
Take `CC(C)CC[C@]1(C(=O)c2cc(F)c(N)c(Cl)c2)CCNC1` [Compound 22, (4-Amino-3-chloro-5-fluoro-phenyl)-[(S)-3-(3-methyl-butyl)-pyrrolidin-3-yl]-methanone]: the IC50 at hSERT transporter was 132 nM. Further, the negative-log IC50 (pIC50) on hNET transporter is 7.48; at hDAT it was 7.08.
Take `CC(C)C[C@@]1(C(=O)c2cc(F)c(N)c(Cl)c2)CCNC1` [Compound 23]: the negative logarithm of the IC50 (pIC50) on hSERT transporter is 8.32; on hDAT it was 8.21. Besides, on hNET transporter, the IC50 is 3.98 nM.
Taken in the same sequence, the figures for `CC(C)(C)CC[C@]1(C(=O)c2cc(F)c(N)c(Cl)c2)CCNC1` [Compound 25, (4-Amino-3-chloro-5-fluoro-phenyl)-[(S)-3-(3,3-dimethyl-butyl)-pyrrolidin-3-yl]-methanone] were 8.76, 9.26 and 0.977 nM.

For the origin of these results see US20090318493A1 (Roche Palo Alto LLC, priority 2008, published 2009).
